Assay results as given in US8399429B2, “Uracyl cyclopropyl nucleotides” (Janssen Products, LP, priority 2008, dated 2013).

Assays:
[1] = test system: HCV replicon (Huh-7 luc/neo, NS3-NS5B of HCV type 1b); test: HCV replicon assay (Huh-Luc, luciferase readout); assay type: cell-based; details: Hepatitis C virus, Huh-7, 72 h, Huh-Luc cells, HCV type 1b replicon, three days incubation, luciferase activity
From the text: The compounds of formula I were examined for activity in the inhibition of HCV RNA replication in a cellular assay aimed at identifying compounds that inhibit a HCV functional cellular replicating cell line, also known as HCV replicons. The cellular assay was based on a bicistronic expression construct, as described by Lohmann et al. (1999), Science vol. 285 pp. 110-113 with modifications described by Krieger et al. (2001), Journal of Virology 75: 4614-4624, in a multi-target screening strategy.
The assay utilized the stably transfected cell line Huh-7 luc/neo (hereafter referred to as Huh-Luc). This cell line harbors an RNA encoding a bicistronic expression construct comprising the wild type NS3-NS5B regions of HCV type 1b translated from an Internal Ribosome Entry Site (IRES) from encephalomyocarditis virus (EMCV), preceded by a reporter portion (FfL-luciferase), and a selectable marker portion (neoR, neomycine phosphotransferase). The construct is bordered by 5′ and 3′ NTRs (non-translated regions) from HCV type 1b. Continued culture of the replicon cells in the presence of G418 (neo^R) is dependent on the replication of the HCV RNA. The stably transfected replicon cells that express HCV RNA, which replicates autonomously and to high levels, encoding inter alia luciferase, were used for screening the antiviral compounds.
The replicon cells were plated in 384 well plates in the presence of the test and control compounds which were added in various concentrations. Following an incubation of three days, HCV replication was measured by assaying luciferase activity (using standard luciferase assay substrates and reagents and a Perkin Elmer ViewLux™ ultraHTS microplate imager). Replicon cells in the control cultures have high luciferase expression in the absence of any inhibitor. The inhibitory activity of the compound on luciferase activity was monitored on the Huh-Luc cells, enabling a dose-response curve for each test compound. EC50 values were then calculated, which value represents the amount of the compound required to decrease the level of detected luciferase activity by 50%, or more specifically, the ability of the genetically linked HCV replicon RNA to replicate.

[2] = Cellular toxicity in Huh7-CMV-Luc replicon assay; assay type: cell-based; details: human, Huh7-CMV-Luc cells, three days incubation, Luc activity; read-out: CC50 (μM) (Huh-7)
Method: Cellular toxicity was determined in the Huh7-CMV-Luc replicon assay. Replicon cells (2500 cells/well), stably transformed with a luciferase reporter gene under control of the cytomegalovirus (CMV) constitutive promotor, were cultured in the presence or absence of test compound concentrations. After three days of incubation at 37° C. in a humidified 5% CO2 atmosphere, cell proliferation was quantified by measuring the Luc activity, and expressed as CC50 values (cytotoxicity, 50% inhibitory concentration of cell growth). Tests were performed in 384-well plates.

[3] = test system: wild type human immunodeficiency virus (HIV) strain IIIB; test: HIV assay in MT4 LTR-EGFP cells; assay type: cell-based, HIV-1; details: Human immunodeficiency virus 1, IIIB, 72 h, three days after infection
Method: (§1) Compounds of the invention were tested for their potency against wild type human immunodeficiency virus (HIV). Antiviral activity was evaluated using a cellular assay performed according to the following procedure. The human T-cell line MT4 was engineered with Green Fluorescent Protein (GFP) and a HIV-specific promoter, HIV-1 long terminal repeat (LTR). This cell line, designated MT4 LTR-EGFP, can be used for the in vitro evaluation of anti-HIV activity of investigational compounds. In HIV-1 infected cells, the Tat protein is produced, which upregulates the LTR promotor and eventually leads to stimulation of the GFP reporter production, allowing to measure ongoing HIV-infection fluorometrically. Effective concentration values such as 50% effective concentration (EC50) can be determined and are usually expressed in μM. An EC50 value is defined as the concentration of test compound that reduces the fluorescence of HIV-infected cells by 50%. Monitoring of HIV-1 infection was done using a scanning microscope. Image analysis allows very sensitive detection of viral infection. Measurements were done before cell necrosis, which usually takes place about five days after infection, in particular measurements were performed three days after infection. The column IIIB in the table list the EC50 values against the wild type strain IIIB.

[4] = Cellular toxicity in the HIV cell-line (MT-4); assay type: cell-based, human; details: human
Method: as §1
Also the HIV activity is given (EC50 HIV (μM)) and the cellular toxicity in the HIV cell-line (CC50 (μM) (MT-4)).

CC[C@H](NP(=O)(OC[C@H]1O[C@@H](n2ccc(=O)[nH]c2=O)C2(CC2)[C@@H]1O)Oc1ccccc1)C(=O)OC(C)C (some centres unmarked) [Compound 31]
EC50 [1]: > 98 µM | CC50 at 3 days [2]: > 98 µM | EC50 [3]: > 95 µM | CC50 [4]: > 98 µM

C[C@H](NP(=O)(OC[C@H]1O[C@@H](n2ccc(=O)[nH]c2=O)C2(CC2)[C@@H]1O)Oc1ccccc1)C(=O)OC1CCCC1 (some centres unmarked) [Compound 14]
EC50 [1]: 3.3 µM | CC50 at 3 days [2]: > 98 µM | EC50 [3]: > 98 µM | CC50 [4]: > 98 µM

CCOC(=O)[C@H](C)NP(=O)(OC[C@H]1O[C@@H](n2ccc(=O)[nH]c2=O)C2(CC2)[C@@H]1O)Oc1ccccc1 (some centres unmarked) [Compound 5]
EC50 [1]: 9.2 µM | CC50 at 3 days [2]: > 98 µM | EC50 [3]: > 90 µM | CC50 [4]: > 98 µM

CCOC(=O)[C@H](Cc1ccccc1)NP(=O)(OC[C@H]1O[C@@H](n2ccc(=O)[nH]c2=O)C2(CC2)[C@@H]1O)Oc1ccccc1 (some centres unmarked) [Compound 17]
EC50 [1]: 4.4 µM | CC50 at 3 days [2]: > 98 µM | EC50 [3]: > 98 µM | CC50 [4]: > 98 µM

Cc1ccc(C(C)C)cc1OP(=O)(N[C@@H](C)C(=O)OCc1ccccc1)OC[C@H]1O[C@@H](n2ccc(=O)[nH]c2=O)C2(CC2)[C@@H]1O (some centres unmarked) [Compound 25]
EC50 [1]: 23.1 µM | CC50 at 3 days [2]: > 32 µM | EC50 [3]: > 98 µM | CC50 [4]: 23 µM

C[C@H](NP(=O)(OC[C@H]1O[C@@H](n2ccc(=O)[nH]c2=O)C2(CC2)[C@@H]1O)Oc1ccccc1)C(=O)OCC(C)(C)C (some centres unmarked) [Compound 11]
EC50 [1]: 2.8 µM | CC50 at 3 days [2]: > 98 µM | EC50 [3]: > 98 µM | CC50 [4]: > 98 µM

Cc1cc(OP(=O)(N[C@@H](C)C(=O)OCc2ccccc2)OC[C@H]2O[C@@H](n3ccc(=O)[nH]c3=O)C3(CC3)[C@@H]2O)c(C(C)C)cc1Cl (some centres unmarked) [Compound 2]
EC50 [1]: 14.3 µM | CC50 at 3 days [2]: > 32 µM | EC50 [3]: > 50 µM | CC50 [4]: > 32 µM

CCCC(CCC)COC(=O)[C@H](C)NP(=O)(OC[C@H]1O[C@@H](n2ccc(=O)[nH]c2=O)C2(CC2)[C@@H]1O)Oc1ccccc1 (some centres unmarked) [Compound 10]
EC50 [1]: 2.8 µM | CC50 at 3 days [2]: > 32 µM | EC50 [3]: > 60 µM | CC50 [4]: 29 µM

COC(=O)C(C)(C)NP(=O)(OC[C@H]1O[C@@H](n2ccc(=O)[nH]c2=O)C2(CC2)[C@@H]1O)Oc1ccccc1 (some centres unmarked) [Compound 27]
EC50 [1]: 91.4 µM | CC50 at 3 days [2]: > 98 µM | EC50 [3]: > 98 µM | CC50 [4]: > 98 µM

C[C@H](NP(=O)(OC[C@H]1O[C@@H](n2ccc(=O)[nH]c2=O)C2(CC2)[C@@H]1O)Oc1ccc2c(ccn2C(=O)OC(C)(C)C)c1)C(=O)OCc1ccccc1 (some centres unmarked) [Compound 16]
EC50 [1]: 4.2 µM | CC50 at 3 days [2]: > 32 µM | EC50 [3]: > 98 µM | CC50 [4]: > 32 µM

C[C@H](NP(=O)(OC[C@H]1O[C@@H](n2ccc(=O)[nH]c2=O)C2(CC2)[C@@H]1O)Oc1cccc2ccccc12)C(=O)OCc1ccccc1 (some centres unmarked) [Compound 1]
EC50 [1]: 2.8 µM | CC50 at 3 days [2]: > 98 µM | EC50 [3]: > 50 µM | CC50 [4]: > 32 µM

CCOC(=O)C1(NP(=O)(OC[C@H]2O[C@@H](n3ccc(=O)[nH]c3=O)C3(CC3)[C@@H]2O)Oc2ccc(Cl)cc2)CCC1 (some centres unmarked) [Compound 26]
EC50 [1]: 73.7 µM | CC50 at 3 days [2]: > 98 µM | EC50 [3]: > 98 µM | CC50 [4]: > 98 µM

CC(C)(NP(=O)(OC[C@H]1O[C@@H](n2ccc(=O)[nH]c2=O)C2(CC2)[C@@H]1O)Oc1ccccc1)C(=O)OCc1ccccc1 (some centres unmarked) [Compound 4]
EC50 [1]: 23.9 µM | CC50 at 3 days [2]: > 98 µM | EC50 [3]: > 98 µM | CC50 [4]: > 98 µM

C[C@H](NP(=O)(OC[C@H]1O[C@@H](n2ccc(=O)[nH]c2=O)C2(CC2)[C@@H]1O)Oc1ccc(C(C)(C)C)cc1)C(=O)OCc1ccccc1 (some centres unmarked) [Compound 19]
EC50 [1]: 7.2 µM | CC50 at 3 days [2]: > 32 µM | EC50 [3]: > 32 µM | CC50 [4]: > 32 µM

CC(C)COC(=O)[C@H](C)NP(=O)(OC[C@H]1O[C@@H](n2ccc(=O)[nH]c2=O)C2(CC2)[C@@H]1O)Oc1ccccc1 (some centres unmarked) [Compound 13]
EC50 [1]: 3.2 µM | CC50 at 3 days [2]: > 98 µM | EC50 [3]: > 98 µM | CC50 [4]: > 98 µM

O=C(CNP(=O)(OC[C@H]1O[C@@H](n2ccc(=O)[nH]c2=O)C2(CC2)[C@@H]1O)Oc1cccc2ccccc12)OCc1ccccc1 (some centres unmarked) [Compound 6]
EC50 [1]: 16.5 µM | CC50 at 3 days [2]: > 98 µM | EC50 [3]: > 90 µM | CC50 [4]: > 98 µM

Cc1ccc(C(C)C)c(OP(=O)(N[C@@H](C)C(=O)OCc2ccccc2)OC[C@H]2O[C@@H](n3ccc(=O)[nH]c3=O)C3(CC3)[C@@H]2O)c1 (some centres unmarked) [Compound 22]
EC50 [1]: 9.2 µM | CC50 at 3 days [2]: > 32 µM | EC50 [3]: 1.65 µM | CC50 [4]: 2.1 µM

CCOC(=O)C1(NP(=O)(OC[C@H]2O[C@@H](n3ccc(=O)[nH]c3=O)C3(CC3)[C@@H]2O)Oc2ccccc2)CCC1 (some centres unmarked) [Compound 32]
EC50 [1]: > 98 µM | CC50 at 3 days [2]: > 98 µM | EC50 [3]: > 98 µM | CC50 [4]: > 98 µM

CCCCOC(=O)[C@H](C)NP(=O)(OC[C@H]1O[C@@H](n2ccc(=O)[nH]c2=O)C2(CC2)[C@@H]1O)Oc1ccccc1 (some centres unmarked) [Compound 12]
EC50 [1]: 3.1 µM | CC50 at 3 days [2]: > 98 µM | EC50 [3]: > 98 µM | CC50 [4]: > 98 µM

CC[C@H](NP(=O)(OC[C@H]1O[C@@H](n2ccc(=O)[nH]c2=O)C2(CC2)[C@@H]1O)Oc1ccccc1)C(=O)OCc1ccccc1 (some centres unmarked) [Compound 21]
EC50 [1]: 7.8 µM | CC50 at 3 days [2]: > 98 µM | EC50 [3]: > 98 µM | CC50 [4]: > 80 µM

CCCCOC(=O)[C@H](C)NP(=O)(OC[C@H]1O[C@@H](n2ccc(=O)[nH]c2=O)C2(CC2)[C@@H]1O)Oc1cccc2ccccc12 (some centres unmarked) [Compound 15]
EC50 [1]: 3.6 µM | CC50 at 3 days [2]: > 98 µM | EC50 [3]: > 60 µM | CC50 [4]: > 60 µM

C[C@H](NP(=O)(OC[C@H]1O[C@@H](n2ccc(=O)[nH]c2=O)C2(CC2)[C@@H]1O)Oc1ccccc1)C(=O)OCc1ccccc1 (some centres unmarked) [Compound 9]
EC50 [1]: 2.9 µM | CC50 at 3 days [2]: > 98 µM | EC50 [3]: > 85 µM | CC50 [4]: > 98 µM

CCOC(=O)C1(NP(=O)(OC[C@H]2O[C@@H](n3ccc(=O)[nH]c3=O)C3(CC3)[C@@H]2O)Oc2ccc(Cl)cc2)CC1 (some centres unmarked) [Compound 33]
EC50 [1]: > 98 µM | CC50 at 3 days [2]: > 98 µM | EC50 [3]: > 98 µM | CC50 [4]: > 98 µM

C=CCCCCOC(=O)[C@H](C)NP(=O)(OC[C@H]1O[C@@H](n2ccc(=O)[nH]c2=O)C2(CC2)[C@@H]1O)Oc1ccc(CC=C)cc1OC (some centres unmarked) [Compound 18]
EC50 [1]: 5.1 µM | CC50 at 3 days [2]: > 98 µM | EC50 [3]: > 98 µM | CC50 [4]: > 64 µM

C[C@H](NP(=O)(OC[C@H]1O[C@@H](n2ccc(=O)[nH]c2=O)C2(CC2)[C@@H]1O)Oc1ccccc1)C(=O)OC(C)(C)C (some centres unmarked) [Compound 30]
EC50 [1]: > 98 µM | CC50 at 3 days [2]: > 98 µM | EC50 [3]: > 98 µM | CC50 [4]: > 98 µM

CCCCCCCCOC(=O)[C@H](C)NP(=O)(OC[C@H]1O[C@@H](n2ccc(=O)[nH]c2=O)C2(CC2)[C@@H]1O)Oc1ccc(Cl)cc1 (some centres unmarked) [Compound 23]
EC50 [1]: 11.2 µM | CC50 at 3 days [2]: > 32 µM | EC50 [3]: > 98 µM | CC50 [4]: > 30 µM

CC(C)OC(=O)C(C)(C)NP(=O)(OC[C@H]1O[C@@H](n2ccc(=O)[nH]c2=O)C2(CC2)[C@@H]1O)Oc1ccccc1 (some centres unmarked) [Compound 28]
EC50 [1]: > 98 µM | CC50 at 3 days [2]: > 98 µM | EC50 [3]: > 98 µM | CC50 [4]: > 98 µM

CCOC(=O)c1ccccc1OP(=O)(N[C@@H](C)C(=O)OCc1ccccc1)OC[C@H]1O[C@@H](n2ccc(=O)[nH]c2=O)C2(CC2)[C@@H]1O (some centres unmarked) [Compound 34]
EC50 [1]: 11 µM | CC50 at 3 days [2]: > 98 µM
